Literature values in patent publication US9199026B2, “Modular extracorporeal systems and methods for treating blood-borne diseases” (SOMERSET GROUP ENTERPRISES, INC., priority 2011, dated 2015).
Like-named read-outs stand apart in the source and are kept apart here. Each block holds one compound with its values, some of them ahead of it.

How the values were obtained:
[1] = not given; remark: listed apart in the source
bacteria = settings: for Spectrum: first line of the cell pair 'Spectrum, activity'; for activity (bactericidal / static): second line of the cell pair 'Spectrum
[2] = not given; remark: listed apart in the source

Compound: Nc1nc(NC2CC2)c2ncn([C@H]3C=C[C@@H](CO)C3)c2n1 [Abacavir]
Percent removed By hemodialysis (in vivo): 24%

Compound: CC1(C)S[C@@H]2[C@H](/N=C/N3CCCCCC3)C(=O)N2[C@H]1C(=O)O [Amdinocillin]
Percent removed By hemodialysis (in vivo): 32-70%
Percent removed By CAPD ([1]; in vivo): Negligible (<4%)

Compound: NCC[C@H](O)C(=O)N[C@@H]1C[C@H](N)[C@@H](O[C@H]2O[C@H](CN)[C@@H](O)[C@H](O)[C@H]2O)[C@H](O)[C@H]1O[C@H]1O[C@H](CO)[C@@H](O)[C@H](N)[C@H]1O [Amikacin]
Spectrum (bacteria): Gram negative,
activity (bactericidal / static) (bacteria): bactericidal
pKa ([2]; no group stated): 12.7

Compound: CC1(C)S[C@@H]2[C@H](NC(=O)[C@H](N)c3ccc(O)cc3)C(=O)N2[C@H]1C(=O)O [Amoxicillin]
Percent removed By hemodialysis (in vivo): 30%

Compound: CC[C@H]1OC(=O)[C@H](C)[C@@H](O[C@H]2C[C@@](C)(OC)[C@@H](O)[C@H](C)O2)[C@H](C)[C@@H](O[C@@H]2O[C@H](C)C[C@H](N(C)C)[C@H]2O)[C@](C)(O)C[C@@H](C)CN(C)[C@H](C)[C@@H](O)[C@]1(C)O [Azithromycin]
pKa ([2]; no group stated): 8.1

Compound: C[C@@H](O)[C@H]1C(=O)N2C(C(=O)[O-])=C(SC3Cn4cnc[n+]4C3)[C@H](C)[C@H]12 (stereo partly shown) [Biapenem]
Percent removed By hemodialysis (in vivo): 90%

Compound: CC1(C)S[C@@H]2[C@H](NC(=O)C(C(=O)O)c3ccccc3)C(=O)N2[C@H]1C(=O)O (stereo partly shown) [Carbenicillin]
Percent removed By hemodialysis (in vivo): 50%

Compound: CC(=O)OCC1=C(C(=O)O)N2C(=O)[C@@H](NC(=O)CSc3ccncc3)[C@H]2SC1 [Cephapirin]
Percent removed By hemodialysis (hemodialysis): 20%

Compound: Nc1ccn(C[C@@H](CO)OCP(=O)(O)O)c(=O)n1 [Cidofovir]
Percent removed By hemodialysis (hemodialysis): 50%
Percent removed By CAPD ([1]; CAPD): Negligible

Compound: O=C(O)c1cn(C2CC2)c2cc(N3CCNCC3)c(F)cc2c1=O [Ciprofloxalin]
activity (bactericidal / static) (bacteria): bactericidal

Compound: CCCCCCCCCC(=O)N[C@@H](Cc1c[nH]c2ccccc12)C(=O)N[C@H](CC(N)=O)C(=O)N[C@@H](CC(=O)O)C(=O)N[C@@H]1C(=O)NCC(=O)N[C@@H](CCCN)C(=O)N[C@@H](CC(=O)O)C(=O)N[C@H](C)C(=O)N[C@@H](CC(=O)O)C(=O)NCC(=O)N[C@H](CO)C(=O)N[C@@H]([C@H](C)CC(=O)O)C(=O)N[C@@H](CC(=O)c2ccccc2N)C(=O)O[C@@H]1C [Daptomycin]
Spectrum (bacteria): Gram positive,
activity (bactericidal / static) (bacteria): bactericidal

Compound: C[C@@H](O)[C@H]1C(=O)N2C(C(=O)O)=C(SCCN=CN)C[C@H]12 [Imipenem]
Percent removed By hemodialysis (in vivo): 80-90%
Percent removed By CAPD ([1]; in vivo): Negligible

Compound: NNC(=O)c1ccncc1 [Isoniazid]
Percent removed By hemodialysis (in vivo): 75%

Compound: CC(=O)NC[C@H]1CN(c2ccc(N3CCOCC3)c(F)c2)C(=O)O1 [Linezolid]
Percent removed By hemodialysis (hemodialysis): 33%

Compound: C[C@@H](O)[C@H]1C(=O)N2C(C(=O)O)=C(S[C@@H]3CN[C@H](C(=O)N(C)C)C3)[C@H](C)[C@H]12 [Meropenem]
Percent removed By hemodialysis (in vivo): 50-70%

Compound: CC1(C)S[C@@H]2[C@H](NC(=O)[C@H](NC(=O)N3CCN(S(C)(=O)=O)C3=O)c3ccccc3)C(=O)N2[C@H]1C(=O)O [Mezlocillin]
Percent removed By hemodialysis (in vivo): 20-25%
Percent removed By CAPD ([1]; in vivo): 24%

Compound: CO[C@@]1(NC(=O)C(C(=O)O)c2ccc(O)cc2)C(=O)N2C(C(=O)O)=C(CSc3nnnn3C)CO[C@@H]21 (stereo partly shown) [Moxalactam]
Percent removed By hemodialysis (in vivo): 30-50%
Percent removed By CAPD ([1]; in vivo): Negligible (15-20%)

Compound: Nc1ccc(C(=O)O)c(O)c1 [Para-aminosalicylic Acid]
Percent removed By hemodialysis (hemodialysis): 50%

Compound: CC1(C)S[C@@H]2[C@H](NC(=O)Cc3ccccc3)C(=O)N2[C@H]1C(=O)O [Penicillin G]
pKa ([2]; no group stated): 2.8

Compound: CN[C@@H]1[C@H](O)[C@H](NC)[C@H]2O[C@@]3(O)C(=O)C[C@@H](C)O[C@H]3O[C@@H]2[C@H]1O [Spectinomycin]
Percent removed By hemodialysis (in vivo): 50%

Compound: CO[C@@]1(NC(=O)C(C(=O)O)c2ccsc2)C(=O)N2[C@@H](C(=O)O)C(C)(C)S[C@@H]21 (stereo partly shown) [Temocillin]
Percent removed By hemodialysis (hemodialysis): 50%
Percent removed By CAPD ([1]; CAPD): Negligible (6%)

Compound: CN(C)c1cc(NC(=O)CNC(C)(C)C)c(O)c2c1C[C@H]1C[C@H]3[C@H](N(C)C)C(O)=C(C(N)=O)C(=O)[C@@]3(O)C(O)=C1C2=O [Tigecycline]
Spectrum (bacteria): Broad,
activity (bactericidal / static) (bacteria): static
pKa ([2]; no group stated): 4.4

Compound: NC[C@H]1O[C@H](O[C@H]2[C@H](O)[C@@H](O[C@H]3O[C@H](CO)[C@@H](O)[C@H](N)[C@H]3O)[C@H](N)C[C@@H]2N)[C@H](N)C[C@@H]1O [Tobramycin]
Spectrum (bacteria): Gram negative,
activity (bactericidal / static) (bacteria): bactericidal

Compound: COc1cc(Cc2cnc(N)nc2N)cc(OC)c1OC [Trimethoprim]
Percent removed By hemodialysis (in vivo): 50%
Percent removed By CAPD ([1]; in vivo): Negligible (7%)

Compound: N[C@@H]1[C@H]2CN(c3nc4c(cc3F)c(=O)c(C(=O)O)cn4-c3ccc(F)cc3F)C[C@@H]12 [Trovafloxacin]
Spectrum (bacteria): Broad,
activity (bactericidal / static) (bacteria): bactericidal

Compound: Colistin
Spectrum (bacteria): Gram negative,
activity (bactericidal / static) (bacteria): bactericidal
pKa ([2]; no group stated): 12.1

Compound: Gentamycin
Spectrum (bacteria): Gram negative,
activity (bactericidal / static) (bacteria): bactericidal

Compound: Penicillin
Percent removed By hemodialysis (hemodialysis): 50%

Compound: Polymixin B
Spectrum (bacteria): G−,
activity (bactericidal / static) (bacteria): bactericidal

Results, then the compound that gave them:

Percent removed By hemodialysis (in vivo): 33%
Compound: N[C@@H](C(=O)N[C@@H]1C(=O)N2C(C(=O)O)=C(Cl)CS[C@H]12)c1ccccc1 [Cefaclor]

Percent removed By hemodialysis (hemodialysis): 50%
Percent removed By CAPD ([1]; CAPD): 20%
Compound: Cc1nnc(SCC2=C(C(=O)O)N3C(=O)[C@@H](NC(=O)Cn4cnnn4)[C@H]3SC2)s1 [Cefazolin]

Percent removed By hemodialysis (hemodialysis): 40-70%
Percent removed By CAPD ([1]; CAPD): 26%
Compound: CO/N=C(\C(=O)N[C@@H]1C(=O)N2C(C(=O)[O-])=C(C[N+]3(C)CCCC3)CS[C@H]12)c1csc(N)n1 [Cefipime]

Percent removed By hemodialysis (in vivo): 16-51%
Percent removed By CAPD ([1]; in vivo): Negligible (<10%)
Compound: CO/N=C(\C(=O)N[C@@H]1C(=O)N2C(C(=O)O)=C(CSc3nnnn3C)CS[C@H]12)c1csc(N)n1 [Cefmenoxime]

Percent removed By hemodialysis (in vivo): 60%
Compound: CO[C@@]1(NC(=O)CSCC#N)C(=O)N2C(C(=O)O)=C(CSc3nnnn3C)CS[C@@H]21 [Cefmetazole]

Percent removed By hemodialysis (in vivo): 50%
Percent removed By CAPD ([1]; in vivo): Negligible (15%)
Compound: CO/N=C(\C(=O)N[C@@H]1C(=O)N2C(C(=O)O)=C(CSc3nc(C)c(CC(=O)O)s3)CS[C@H]12)c1csc(N)n1 [Cefodizime]

Percent removed By hemodialysis (in vivo): 20-50%
Percent removed By CAPD ([1]; in vivo): Negligible
Compound: NCc1ccccc1CC(=O)N[C@@H]1C(=O)N2C(C(=O)O)=C(CSc3nnnn3CC(=O)O)CS[C@H]12 [Ceforanide]

Percent removed By hemodialysis (in vivo): 50%
Percent removed By CAPD ([1]; in vivo): Negligible
Compound: CO[C@@]1(NC(=O)Cc2cccs2)C(=O)N2C(C(=O)O)=C(COC(N)=O)CS[C@@H]21 [Cefoxitin]

Percent removed By hemodialysis (in vivo): 32-48%
Percent removed By CAPD ([1]; in vivo): Negligible (12%)
Compound: CO/N=C(\C(=O)N[C@@H]1C(=O)N2C(C(=O)[O-])=C(C[n+]3cccc4c3CCC4)CS[C@H]12)c1csc(N)n1 [Cefpirome]

Percent removed By hemodialysis (in vivo): 50%
Compound: COCC1=C(C(=O)O)N2C(=O)[C@@H](NC(=O)/C(=N\OC)c3csc(N)n3)[C@H]2SC1 [Cefpodoxime]

Percent removed By hemodialysis (in vivo): 55%
Compound: CC=CC1=C(C(=O)O)N2C(=O)[C@@H](NC(=O)[C@H](N)c3ccc(O)cc3)[C@H]2SC1 [Cefprozil]

Percent removed By hemodialysis (in vivo): 50%
Compound: COC1=C(C(=O)O)N2C(=O)[C@@H](NC(=O)[C@H](N)C3=CCC=CC3)[C@H]2SC1 [Cefroxadine]

Percent removed By hemodialysis (hemodialysis): 60%
Compound: NC(=O)c1cc[n+](CC2=C(C(=O)O)N3C(=O)[C@@H](NC(=O)[C@@H](c4ccccc4)S(=O)(=O)[O-])[C@H]3SC2)cc1 [Cefsulodin]

Percent removed By hemodialysis (in vivo): 50%
Percent removed By CAPD ([1]; in vivo): Negligible
Compound: CC(C)(O/N=C(\C(=O)N[C@@H]1C(=O)N2C(C(=O)[O-])=C(C[n+]3ccccc3)CS[C@H]12)c1csc(N)n1)C(=O)O [Ceftazidime]

Percent removed By hemodialysis (in vivo): 39%
Compound: Nc1nc(/C(=C/CC(=O)O)C(=O)N[C@@H]2C(=O)N3C(C(=O)O)=CCS[C@H]23)cs1 [Ceftibuten]

Percent removed By hemodialysis (in vivo): 50%
Percent removed By CAPD ([1]; in vivo): Negligible (16%)
Compound: CO/N=C(\C(=O)N[C@@H]1C(=O)N2C(C(=O)O)=CCS[C@H]12)c1csc(N)n1 [Ceftizoxime]

pKa ([2]; (NH2)): 3.2
Compound: CO/N=C(\C(=O)N[C@@H]1C(=O)N2C(C(=O)O)=C(CSc3nc(=O)c(=O)[nH]n3C)CS[C@H]12)c1csc(N)n1 [Ceftriaxone sodium]

Percent removed By hemodialysis (in vivo): 40%
Percent removed By CAPD ([1]; in vivo): Negligible (4.5%)
Compound: CO/N=C(\C(=O)N[C@@H]1C(=O)N2C(C(=O)O)=C(CSc3nc(=O)c(=O)[nH]n3C)CS[C@H]12)c1csc(N)n1 [Ceftriaxone]

pKa ([2]; no group stated): 2.5
Compound: CO/N=C(\C(=O)N[C@@H]1C(=O)N2C(C(=O)O)=C(COC(N)=O)CS[C@H]12)c1ccco1 [Cefuroxime sodium]

Percent removed By CAPD ([1]; in vivo): 20%
Compound: CO/N=C(\C(=O)N[C@@H]1C(=O)N2C(C(=O)O)=C(COC(N)=O)CS[C@H]12)c1ccco1 [Cefuroxime]

Percent removed By hemodialysis (in vivo): 50%
Compound: CC(=O)OCC1=C(C(=O)O)N2C(=O)[C@@H](NC(=O)CC#N)[C@H]2SC1 [Cephacetrile]

Percent removed By hemodialysis (in vivo): 50-75%
Percent removed By CAPD ([1]; in vivo): 30%
Compound: CC1=C(C(=O)O)N2C(=O)[C@@H](NC(=O)[C@H](N)c3ccccc3)[C@H]2SC1 [Cephalexin]

Percent removed By hemodialysis (in vivo): 50%
Compound: CC(=O)OCC1=C(C(=O)O)N2C(=O)[C@@H](NC(=O)Cc3cccs3)[C@H]2SC1 [Cephalothin]

Percent removed By hemodialysis (in vivo): 30-40%
Compound: CN(C)CCn1nnnc1SCC1=C(C(=O)O)N2C(=O)[C@@H](NC(=O)Cc3csc(N)n3)[C@H]2SC1 [Defotiam]
